Experimental data taken from US4652552A, “Tetrapeptide methyl ketone inhibitors of viral proteases” (priority 1984, dated 1987).
Non-standard residues stand in square brackets, D forms with d. Residues, ends and D or L forms follow the SMILES beside them. ξ: configuration not given here. *: point of attachment. ξL = CC(C)CC(N)C(=O)O; CH2Cl = ClC*

Key:
chymotrypsin = chymotrypsin (Bos taurus, UniProt P00766); settings: inhibitor concentration 600 μg/mL; cited from earlier work
[1] = test system: human poliomyelitis virus type 2 or human rhinovirus type 1A; assay type: cell-based; set-up: key to Protease-Inhibiting Activity of Selected Peptide Chloromethyl Ketones: Activity: -: no activity; +/-: low activity; +: active at 100 μg/mL; ++: active at 50 μg/mL; +++: active at 10 μg/mL; ++++: active at <5 μg/mL
[2] = test system: human poliomyelitis virus type 2; assay type: cell-based; settings: test concentration 100 μg/mL
human rhinovirus type 1A = assay type: cell-based; settings: test concentration 100 μg/mL
subtilisin BPN' = target: T1, subtilisin BPN' (Bacillus amyloliquefaciens, UniProt P00782); settings: cited from earlier work
T1 sequence (P00782 108-382): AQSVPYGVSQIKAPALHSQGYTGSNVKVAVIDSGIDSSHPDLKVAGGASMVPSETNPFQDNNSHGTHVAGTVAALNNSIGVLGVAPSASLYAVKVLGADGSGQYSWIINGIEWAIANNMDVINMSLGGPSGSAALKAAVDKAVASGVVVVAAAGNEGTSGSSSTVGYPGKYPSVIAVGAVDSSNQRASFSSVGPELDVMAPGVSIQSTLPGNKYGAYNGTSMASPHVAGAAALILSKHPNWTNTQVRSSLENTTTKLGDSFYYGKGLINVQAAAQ

rhinovirus type 1A = assay type: cell-based
Poliovirus type 2 = assay type: cell-based

Which inhibition of chymotrypsin (chymotrypsin) does the source give for CC(=O)N[C@@H](CC(C)C)C(=O)N[C@@H](CC(C)C)C(=O)N[C@@H](Cc1ccccc1)C(C)=O [Ac-Leu-Leu-PheCH3] here?
Its inhibition of chymotrypsin is “no inhibition was observed”.

Which “activity in the viral cleavage assay” value [1] does the source give for CC(=O)[C@H](CC(C)C)NC(=O)[C@H](C)NC(=O)CNC(=O)[C@H](Cc1ccccc1)NC(=O)OC(C)(C)C [Boc-Phe-Gly-Ala-LeuCH3, reference compound] here?
Its value is “failed to show activity”.

For COC(=O)CCC(=O)N[C@@H](Cc1ccccc1)C(=O)NCC(=O)N[C@@H](C)C(=O)N[C@@H](CC(C)C)C(C)=O [MeOSuc-Phe-Gly-Ala-LeuCH3, MeOSuc--Phe--Gly--Ala--LeuCH3], which “Protease-Inhibiting Activity of Selected Peptide Chloromethyl Ketones: Activity” value [1] is on record?
The value was “+++ (key: -: no activity; +/-: low activity; +: active at 100 μg/mL; ++: active at 50 μg/mL; +++: active at 10 μg/mL; ++++: active at <5 μg/mL)”.

What about the “activity in the viral cleavage assay” value [2] of the same compound?
The value was “demonstrated activity”.

And the “activity in the viral cleavage assay” value (human rhinovirus type 1A)?
The value was “demonstrated activity”.

Which “Protease-Inhibiting Activity of Selected Peptide Chloromethyl Ketones: Activity” value [1] does the source give for COC(=O)CCC(=O)N[C@@H](Cc1ccccc1)C(=O)NCC(=O)N[C@@H](CC(C)C)C(=O)N[C@@H](CC(C)C)C(C)=O [MeOSuc-Phe-Gly-Leu-LeuCH3] here?
Its value is “+/-”.

Which “inhibition of subtilisin BPN' (rate, among the peptide chloromethyl ketones tested)” value (subtilisin BPN') does the source give for CC(=O)N[C@@H](Cc1ccccc1)C(=O)NCC(=O)N[C@@H](C)C(=O)NC(CC(C)C)C(=O)CCl (stereo partly drawn) [Peptide Analog 3, acetyl-L-phenylalanyl-L-glycyl-L-alanyl-L-leucyl chloromethyl ketone] (Ac-FGA[ξL]-CH2Cl) here?
The value was “fastest inhibitor”.

For CC(=O)[C@H](CC(C)C)NC(=O)[C@H](C)NC(=O)CNC(=O)[C@H](Cc1ccccc1)NC(=O)OCc1ccccc1 [Z-Phe-Gly-Ala-LeuCH3], which “Protease-Inhibiting Activity of Selected Peptide Chloromethyl Ketones: Activity” value [1] is on record?
The value was “+++ (key: -: no activity; +/-: low activity; +: active at 100 μg/mL; ++: active at 50 μg/mL; +++: active at 10 μg/mL; ++++: active at <5 μg/mL)”.

And the “plaque reduction compared to control plates” value (rhinovirus type 1A)?
Its value is over 90%.

And the cytotoxicity (HeLa cells)?
Its cytotoxicity is “No cytotoxicity was observed”.

And the “plaque reduction compared to control plates” value (Poliovirus type 2)?
Its value is over 90%.

With CC(=O)[C@H](CC(C)C)NC(=O)[C@H](CC(C)C)NC(=O)CNC(=O)[C@H](Cc1ccccc1)NC(=O)OCc1ccccc1 [Z-Phe-Gly-Leu-LeuCH3, N-carbobenzoxy-L-phenylalanyl-L-glycyl-L-leucyl-L-leucyl methyl ketone] as the compound, how does the “Protease-Inhibiting Activity of Selected Peptide Chloromethyl Ketones: Activity” value [1] read?
The value was “+++ (key: -: no activity; +/-: low activity; +: active at 100 μg/mL; ++: active at 50 μg/mL; +++: active at 10 μg/mL; ++++: active at <5 μg/mL)”.
